According to patent US20240239790A1, “7-Morpholino-1,6-Naphthyridin-5-yl Derivatives and Pharmaceutical Compositions Thereof Useful as DNA-PK Inhibitor” (adMare Therapeutics Society, priority 2021, published 2024):
Like-named read-outs stand apart in the source and are kept apart here.

What was measured:
[1] = test system: pDNA-PK induction in HCT116 tumour spheroids; experiment: Multicellular tumour spheroid + radiation, pDNA-PK (ser2056) inhibition, immunohistochemical endpoint, HCT116; type: cell-based; conditions: Homo sapiens, 20 Gy, 20% O2
How it was run: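 HCT116 spheroids (~0.5 mm) in MEM/10% FBS, 20% O2, 37° C., pre-incubated 1 h with compound (10 or 5 μM down to 3.5 nM), irradiated 20 Gy, then 2 h further with compound. Cryosections immunostained for pDNA-PK ser2056; EC50 is concentration halving radiation-induced pDNA-PK.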

[2] = Hepatocyte Stability Assay, human hepatocytes; type: in vitro ADME; conditions: for hepatocyte CLint at 1 uM: both sexes, cryopreserved hepatocytes, pH 7.3, human hepatocytes 0.7 million cells per mL, 1 uM compound; for Hepatocyte Stability Human % rem. 120 min: human hepatocytes
Description: Cryopreserved mouse hepatocytes were obtained from a pool of 10 or more male CD-1 mice. Cryopreserved human hepatocytes were obtained from a pool of 10 or more donors of mixed gender. Final hepatocyte density was 0.7 million viable cells per mL and test compound concentration was 1 uM with a maximum of 0.01% DMSO. Cryopreserved hepatocytes were thawed, washed, and resuspended in Krebs-Heinslet buffer (pH 7.3). The reaction was initiated by adding the test compound into cell suspension and incubated for 0, […], 1, 1.5, and 2 h, respectively, at 37° C./5% C02. The reaction was stopped by adding acetonitrile into the incubation mixture. Samples were then mixed, transferred completely to another 96-well plate, and centrifuged. Supernatants were used for HPLC-MS/MS analysis. […] Peak areas corresponding to the test compound were recorded.

[3] = biological target: T1, DNA-PK (Homo sapiens, UniProt P78527); experiment: DNA-PK Assay for Biochemical Enzymatic Inhibition (ADP Glo Kinase assay); conditions: DNA-PK enzyme, Table 1
T1 construct: purchased Invitrogen PR9107A
How it was run: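 Human DNA-PK (25 ng) preincubated 15 min with compounds (ten three-fold dilutions) in HEPES pH 7.5, MgCl2, KCl, calf thymus DNA buffer, then substrate 434.4 μM and ATP 64.4 μM (final) for 60 min at room temperature. ADP-Glo luminescence; percent inhibition fitted by four-parameter regression for IC50.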

[4] = HCT-116, 2 h, spheroids, Example 8, read-out: Cell line: HCT116 Immunohistochemical endpoint pDNA-PK inhibition EC50
[5] = HCT-116, 2 hours following radiation, Example 9 Study 2, read-out: Spheroid Cell line: HCT116 Immunohistochemical endpoint pDNA-PK inhibition EC50
[6] = HCT-116, Spheroid, Cell Line: HCT115 (so in the source), 2 hours following radiation, Example 7, read-out: EC50, Immunohistochemical endpoint, pDNA-PK inhibition

| SMILES | EC50 [1, 4] | EC50 [1, 5] | EC50 [1, 6] | hepatocyte CLint at 1 uM [2] | Hepatocyte Stability Human % rem. 120 min [2] | IC50 [3] |
| --- | --- | --- | --- | --- | --- | --- |
| CN1CCN(C(=O)COc2cnc(N[C@H]3CC[C@@H](Oc4nc(N5CCOCC5)cc5ncccc45)CC3)nc2)CC1 [Compound 62, 1-(4-Methylpiperazin-1-yl)-2-((2-(((1s,4s)-4-((7-morpholino-1,6-naphthyridin-5-yl)oxy)cyclohexyl)amino)pyrimidin-5-yl)oxy)ethan-1-one] | – | 0.5 to 1 µM | 0.5 to 1 µM | > 8.2 µL/min/1e6 cells | F (% remaining = 25-50%) | < 0.0005 µM |
| O=C(COc1cnc(N[C@H]2CC[C@@H](Oc3nc(N4CCOCC4)cc4ncccc34)CC2)nc1)N1CCNCC1 [Compound 63, 2-((2-(((1s,4s)-4-((7-Morpholino-1,6-naphthyridin-5-yl)oxy)cyclohexyl)amino)pyrimidin-5-yl)oxy)-1-(piperazin-1-yl)ethan-1-one] | – | 1 to 10 µM | 1 to 10 µM | > 8.2 µL/min/1e6 cells | F (% remaining = 25-50%) | < 0.0005 µM |
| NCCOc1cnc(N[C@H]2CC[C@@H](Oc3nc(N4CCOCC4)cc4ncccc34)CC2)nc1 [Compound 65, 5-(2-Aminoethoxy)-N-((1s,4s)-4-((7-morpholino-1,6-naphthyridin-5-yl)oxy)cyclohexyl)pyrimidin-2-amine] | – | 1 to 10 µM | 1 to 10 µM | < 8.2 µL/min/1e6 cells | F (% remaining = 25-50%) | < 0.0005 µM |
| CC(=O)NCCOc1cnc(N[C@H]2CC[C@@H](Oc3nc(N4CCOCC4)cc4ncccc34)CC2)nc1 [Compound 66] | – | 1 to 10 µM | 1 to 10 µM | < 8.2 µL/min/1e6 cells | G (% remaining = 50-75%) | 0.0005 to 0.001 µM |
| CN1CCN(CCOc2cnc(N[C@H]3CC[C@@H](Oc4nc(N5CCOCC5)cc5ncccc45)CC3)nc2)CC1 [Compound 69, 5-(2-(4-Methylpiperazin-1-yl)ethoxy)-N-((1s,4s)-4-((7-morpholino-1,6-naphthyridin-5-yl)oxy)cyclohexyl)pyrimidin-2-amine] | – | 1 to 10 µM | 1 to 10 µM | < 8.2 µL/min/1e6 cells | G (% remaining = 50-75%) | < 0.0005 µM |
| O=C(COc1cnc(N[C@H]2CC[C@@H](Oc3nc(N4CCOCC4)cc4ncccc34)CC2)nc1)N1CCC1 [Compound 75, 1-(Azetidin-1-yl)-2-((2-(((1s,4s)-4-((7-morpholino-1,6-naphthyridin-5-yl)oxy)cyclohexyl)amino)pyrimidin-5-yl)oxy)ethan-1-one] | – | 0.5 to 1 µM | 0.5 to 1 µM | < 8.2 µL/min/1e6 cells | H (% remaining = 75-100%) | < 0.0005 µM |
| Cn1c(=O)n(C2CCOCC2)c2nc(N[C@H]3CC[C@@H](Oc4nc(N5CCOCC5)cc5ncccc45)CC3)ncc21 [Compound 96, 7-Methyl-2-(((1s,4s)-4-((7-morpholino-1,6-naphthyridin-5-yl)oxy)cyclohexyl)amino)-9-(tetrahydro-2H-pyran-4-yl)-7,9-dihydro-8H-purin-8-one] | – | 0.5 to 1 µM | 0.5 to 1 µM | > 8.2 µL/min/1e6 cells | F (% remaining = 25-50%) | < 0.0005 µM |
| O=C(O)c1cnc2cc(N3CCOCC3)nc(O[C@H]3CC[C@@H](n4ccnc4)CC3)c2c1 [Compound 165, 5-(((1s,4s)-4-(1H-imidazol-1-yl)cyclohexyl)oxy)-7-morpholino-1,6-naphthyridine-3-carboxylic acid] | 10 to 100 µM | 10 to 100 µM | 10 to 100 µM | – | – | < 0.0005 µM |
| O=C(NO)c1cnc2cc(N3CCOCC3)nc(O[C@H]3CC[C@@H](n4ccnc4)CC3)c2c1 [Compound 172, 5-(((1s,4s)-4-(1H-imidazol-1-yl)cyclohexyl)oxy)-N-hydroxy-7-morpholino-1,6-naphthyridine-3-carboxamide] | 1 to 10 µM | 1 to 10 µM | 1 to 10 µM | – | – | < 0.0005 µM |
| CS(=O)(=O)NC(=O)c1cnc2cc(N3CCOCC3)nc(O[C@H]3CC[C@@H](n4ccnc4)CC3)c2c1 [Compound 175, 5-(((1s,4s)-4-(1H-imidazol-1-yl)cyclohexyl)oxy)-N-(methylsulfonyl)-7-morpholino-1,6-naphthyridine-3-carboxamide] | 10 to 100 µM | 10 to 100 µM | 10 to 100 µM | – | – | 0.0005 to 0.001 µM |

Continued, values first:

| EC50 [1, 4] | EC50 [1, 5] | EC50 [1, 6] | hepatocyte CLint at 1 uM [2] | Hepatocyte Stability Human % rem. 120 min [2] | IC50 [3] | SMILES |
| --- | --- | --- | --- | --- | --- | --- |
| 0.01 to 0.5 µM | 0.01 to 0.5 µM | 0.01 to 0.5 µM | < 8.2 µL/min/1e6 cells | F (% remaining = 25-50%) | 0.0005 to 0.001 µM | CN(C)C(=O)COc1cnc(N[C@H]2CC[C@@H](Oc3nc(N4CCOCC4)cc4ncccc34)CC2)nc1 [Compound 54, N,N-Dimethyl-2-((2-(((1s,4s)-4-((7-morpholino-1,6-naphthyridin-5-yl)oxy)cyclohexyl)amino)pyrimidin-5-yl)oxy)acetamide] |
| – | 0.01 to 0.5 µM | 0.01 to 0.5 µM | < 8.2 µL/min/1e6 cells | G (% remaining = 50-75%) | 0.0005 to 0.001 µM | O=C(COc1cnc(N[C@H]2CC[C@@H](Oc3nc(N4CCOCC4)cc4ncccc34)CC2)nc1)N1CCOCC1 [Compound 61, 1-Morpholino-2-((2-(((1s,4s)-4-((7-morpholino-1,6-naphthyridin-5-yl)oxy)cyclohexyl)amino)pyrimidin-5-yl)oxy)ethan-1-one] |
| 0.01 to 0.5 µM | 0.01 to 0.5 µM | 0.01 to 0.5 µM | – | – | < 0.0005 µM | CN(C)CCOc1cnc(N[C@H]2CC[C@@H](Oc3nc(N4CCOCC4)cc4ncccc34)CC2)nc1 [Compound 64, 5-(2-(Dimethylamino)ethoxy)-N-((1s,4s)-4-((7-morpholino-1,6-naphthyridin-5-yl)oxy)cyclohexyl)pyrimidin-2-amine] |
| – | 0.5 to 1 µM | 0.5 to 1 µM | > 8.2 µL/min/1e6 cells | F (% remaining = 25-50%) | < 0.0005 µM | c1cnc2cc(N3CCOCC3)nc(O[C@H]3CC[C@@H](Nc4ncc(OCCN5CCOCC5)cn4)CC3)c2c1 [Compound 68, N-((1s,4s)-4-((7-Morpholino-1,6-naphthyridin-5-yl)oxy)cyclohexyl)-5-(2-morpholinoethoxy)pyrimidin-2-amine] |
| – | 0.01 to 0.5 µM | 0.01 to 0.5 µM | < 8.2 µL/min/1e6 cells | G (% remaining = 50-75%) | < 0.0005 µM | CNC(=O)COc1cnc(N[C@H]2CC[C@@H](Oc3nc(N4CCOCC4)cc4ncccc34)CC2)nc1 [Compound 71, N-Methyl-2-((2-(((1s,4s)-4-((7-morpholino-1,6-naphthyridin-5-yl)oxy)cyclohexyl)amino)pyrimidin-5-yl)oxy)acetamide] |
| – | 0.01 to 0.5 µM | 0.01 to 0.5 µM | < 8.2 µL/min/1e6 cells | H (% remaining = 75-100%) | < 0.0005 µM | CN(C)C(=O)Cn1ccc2nc(N[C@H]3CC[C@@H](Oc4nc(N5CCOCC5)cc5ncccc45)CC3)ncc21 [Compound 86, N,N-Dimethyl-2-(2-(((1s,4s)-4-((7-morpholino-1,6-naphthyridin-5-yl)oxy)cyclohexyl)amino)-5H-pyrrolo[3,2-d]pyrimidin-5-yl)acetamide] |
| – | 0.01 to 0.5 µM | 0.01 to 0.5 µM | > 8.2 µL/min/1e6 cells | F (% remaining = 25-50%) | 0.0005 to 0.001 µM | O=c1[nH]c2cnc(N[C@H]3CC[C@@H](Oc4nc(N5CCOCC5)cc5ncccc45)CC3)nc2n1C1CCOCC1 [Compound 95, 2-(((1s,4s)-4-((7-Morpholino-1,6-naphthyridin-5-yl)oxy)cyclohexyl)amino)-9-(tetrahydro-2H-pyran-4-yl)-7,9-dihydro-8H-purin-8-one] |
| – | 0.01 to 0.5 µM | 0.01 to 0.5 µM | < 8.2 µL/min/1e6 cells | G (% remaining = 50-75%) | < 0.0005 µM | CN(C)C(=O)Cn1c(=O)n(C2CCOCC2)c2nc(N[C@H]3CC[C@@H](Oc4nc(N5CCOCC5)cc5ncccc45)CC3)ncc21 [Compound 97, N,N-Dimethyl-2-(2-(((1s,4s)-4-((7-morpholino-1,6-naphthyridin-5-yl)oxy)cyclohexyl)amino)-8-oxo-9-(tetrahydro-2H-pyran-4-yl)-8,9-dihydro-7H-purin-7-yl)acetamide] |
